# Data: patent publication US10945427B2, “Trehalose and dextran-containing solution for transplanting mammalian cells” (OTSUKA PHARMACEUTICAL FACTORY, INC., priority 2013, dated 2021)
# System: Human mesenchymal stem cells from bone marrow [hMSC-BM]
# Assay: Cell survival rate of hMSC-BM preserved in solution for cell transplantation (Trypan blue)
# Assay type: cell-based
# Details: hMSC-BM preserved for 14 days; saccharide-containing Lactec injection without trehalose or dextran
# Protocol: Human mesenchymal stem cells from bone marrow [hMSC-BM] (from Lonza Co., Ltd.) were prepared according the procedures described in [1] to [8] below and used in the present experiment.
# [1] hMSC-BM were cultured in a 5% CO2 incubator at 37° C. in the presence of a medium kit specific for human mesenchymal stem cells (from Lonza Co., Ltd.) (hereinafter referred to as “MSC medium”) using a 75-cm^2 flask. The state of the cells was observed under a microscope, and culture was performed until a confluent state of about 80% was reached.
# [2] The […] was removed using an aspirator, and hMSC-BM were rinsed with 8 mL/flask of PBS (from Invitrogen Co., Ltd.).
# [4] Swing was carried out in a slow manner while hMSC-BM were observed under a microscope until about 90% thereof were detached.
# Centrifugation was carried out at 600×g and 25° C. for 5 minutes.
# [7] The MSC medium as the supernatant was removed using an aspirator, and 4 mL/flask of PBS (from Invitrogen Co., Ltd.) was added, followed by suspending an hMSC-BM pellet (precipitate).
# [8] 10 μL of the hMSC-BM suspension was taken; the number of the cells was measured using a cell counter; and PBS (from Invitrogen Co., Ltd.) was added thereto to 5×10^5 cells/mL, which was then cooled with ice.
# [1] The hMSC-BM suspension prepared in the step [7] of the “1-1-3 Preparation of Mammalian Cell” described above was dispensed into a 15-mL conical centrifuge tube using […] (100 to 1,000 μL) and centrifuged at 600×g and 25° C. for 5 minutes.
# [2] The supernatant after centrifugation treatment was aspirated/removed, and the resultant was suspended in each of the 11 solutions for cell transplantation and then preserved in a refrigerator (under conditions of 4° C.) for […]. To measure the cell survival rate before preservation, the supernatant after centrifugation treatment was aspirated/removed, and the resultant was then suspended in PBS (from Invitrogen Co., Ltd.), immediately followed by taking a portion (20 μL) of the suspension, mixing the portion with 20 μL of Trypan blue stain solution (from Gibco Co., Ltd.), and then measuring the total number of the cells and the number of dead cells using a cell counter under a microscope to evaluate the rate of living cells (see “P” in FIG. 1).
# [3] After preserving hMSC-BM in the solution for cell transplantation for 14 days, stirring (5 times pipetting at a liquid volume of 500 μL) was gently performed in a state in which the end of a tip was inserted to a position visually at on the order of 5 mm from the bottom to make cells in a suspended state, and a portion (20 μL) of the suspension was taken into a 1.5-mL microtube, mixed with 20 μL of Trypan blue stain solution (from Gibco Co., Ltd.), and then measured for the total number of the cells and the number of dead cells using a cell counter under a microscope to evaluate the rate of living cells.
row,SMILES,"effect of saccharide used alone on cell death, FIG. 7"
1,OC[C@@H](O)[C@@H](O)[C@H](O)[C@H](O)CO [mannitol],had not the effect of suppressing cell death
2,OC[C@H]1O[C@H](OC[C@H]2O[C@H](O[C@]3(CO)O[C@H](CO)[C@@H](O)[C@@H]3O)[C@H](O)[C@@H](O)[C@@H]2O)[C@H](O)[C@@H](O)[C@H]1O [raffinose],had not the effect of suppressing cell death
3,OC[C@H]1O[C@@H](O[C@H]2[C@H](O)[C@@H](O)C(O)O[C@@H]2CO)[C@H](O)[C@@H](O)[C@H]1O (stereo partly drawn) [lactose],had not the effect of suppressing cell death
4,OC[C@H]1O[C@@](CO)(O[C@H]2O[C@H](CO)[C@@H](O)[C@H](O)[C@H]2O)[C@@H](O)[C@@H]1O [sucrose],had not the effect of suppressing cell death
5,OC[C@H]1O[C@H](O[C@H]2[C@H](O)[C@@H](O)[C@H](O)O[C@@H]2CO)[C@H](O)[C@@H](O)[C@@H]1O [maltose],had not the effect of suppressing cell death
6,OC[C@@H](O)[C@@H](O)[C@H](O)[C@@H](O)CO [sorbitol],had not the effect of suppressing cell death
